Values after ≈ are worked out from the molar mass of the structure shown. Where a SMILES comes first, the peptide text is derived from it. Bridges are numbered along the chain shown (N, C = ends).
Key:
Assay type in all cases: cell-based
[1] = tested on: Pseudomonas aeruginosa ATCC 27853; assay: Antimicrobial assay, MIC by broth microdilution; details: ATCC27853, highest test concentration 128 μg/mL, read-out: minimum inhibitory concentration (MIC), Pseudomonas aeruginosa
Experimental: (§1) Ranatuerin-2P-OG1 synthesis was performed by Royobiotech Co., Ltd. (Shanghai, China) using solid-phase peptide synthesis. The crude peptide was purified by RP-HPLC and its purity was confirmed to exceed 90% via ESI-MS analysis. Antimicrobial assays with various microbial strains were conducted, including gram-positive Staphylococcus aureus ATCC 29213 and its methicillin-resistant variant (MRSA) CIB 8546, Enterococcus faecalis ATCC 29212, gram-negative Pseudomonas aeruginosa ATCC 27853 and Escherichia coli ATCC 25922, and fungal Candida albicans CCMCC(F) 98001. Bacterial cultures were maintained in cation-adjusted Mueller-Hinton broth (MHB) at 35°C for 16-20 h, whereas fungal cultures were grown in Sabouraud dextrose broth (SDB) at 28°C for 48 h.

[2] = tested on: methicillin-resistant Staphylococcus aureus (MRSA) CIB 8546; assay: microbe, parasite or virus in culture
Experimental: as §1

[3] = tested on: Enterococcus faecalis ATCC 29212; assay: microbe, parasite or virus in culture
Experimental: as §1

[4] = tested on: Escherichia coli ATCC 25922; assay: microbe, parasite or virus in culture
Experimental: as §1

[5] = tested on: Staphylococcus aureus ATCC 29213; assay: microbe, parasite or virus in culture
Experimental: as §1

[6] = tested on: Candida albicans CCMCC(F) 98001
Experimental: as §1

Row | MIC [1] [µg/mL] | MIC ([2]; Staphylococcus aureus, broth microdilution, MRSA CIB 8546, read-out: minimum inhibitory concentration (MIC), MRSA) [µg/mL] | MIC ([3]; ATCC29212, broth microdilution, Enterococcus faecalis ATCC 29212, read-out: minimum inhibitory concentration (MIC), Enterococcus faecalis) [µg/mL] | MIC ([4]; ATCC25922, broth microdilution, Escherichia coli ATCC 25922, read-out: minimum inhibitory concentration (MIC), Escherichia coli) [µg/mL] | MIC ([5]; ATCC29213, broth microdilution, Staphylococcus aureus ATCC 29213, read-out: minimum inhibitory concentration (MIC), Staphylococcus aureus) [µg/mL] | minimum inhibitory concentration (MIC), Candida albicans [6] [µg/mL] | minimum inhibitory concentration (MIC), MRSA ([2]; methicillin-resistant CIB 8546) [µg/mL] | minimum inhibitory concentration (MIC), Enterococcus faecalis ([3]; ATCC 29212) [µg/mL] | minimum inhibitory concentration (MIC), Escherichia coli ([4]; ATCC 25922) [µg/mL] | minimum inhibitory concentration (MIC), Staphylococcus aureus ([5]; ATCC 29213) [µg/mL] | Compound
1 | > 128 | 128 (≈ 366 µM) | 2 (≈ 5.72 µM) | 8 (≈ 22.9 µM) | 1 (≈ 2.86 µM) | – | – | – | – | – | CC1(C)S[C@@H]2[C@H](NC(=O)[C@H](N)c3ccccc3)C(=O)N2[C@H]1C(=O)O [Ampicillin, reference compound]
2 | – | – | – | – | – | 512 (≈ 169 µM) | 64 (≈ 21.2 µM) | 256 (≈ 84.7 µM) | 128 (≈ 42.3 µM) | 64 (≈ 21.2 µM) | CC[C@H](C)[C@H](NC(=O)[C@H](CCCCN)NC(=O)[C@H](CC(=O)O)NC(=O)[C@H](CCCCN)NC(=O)[C@@H](NC(=O)[C@@H](NC(=O)CNC(=O)[C@H](C)NC(=O)[C@@H](NC(=O)[C@H](CC(N)=O)NC(=O)[C@@H](NC(=O)[C@H](CC(C)C)NC(=O)[C@@H](NC(=O)[C@H](CC(N)=O)NC(=O)[C@H](CC(C)C)NC(=O)[C@@H](NC(=O)[C@@H](NC(=O)[C@H](CC(N)=O)NC(=O)[C@H](CCSC)NC(=O)[C@H](CC(C)C)NC(=O)CN)[C@@H](C)O)C(C)C)C(C)C)[C@@H](C)O)C(C)C)[C@@H](C)O)C(C)C)C(=O)N[C@@H](CCCCN)C(=O)N[C@H]1CSSC[C@@H](C(=O)O)NC(=O)CNC(=O)CNC(=O)[C@H]([C@@H](C)O)NC(=O)[C@H](Cc2ccccc2)NC(=O)[C@H](CCCCN)NC1=O [ranatuerin-2P-OG1] (H-GLMNTVLNVLTNVAGTVKDKIKCKFTGGC-OH; disulfide 23-29)

From publication PMC12664280, “Integrative transcriptomics and peptidomics approach reveals unexpectedly diverse endogenous secretory peptides in Odorrana grahami frog skin” (BMC Biology, 2025)
